Laboratory results as given in US7943618B2, “Btk protein kinase inhibitors” (Roche Palo Alto LLC, priority 2007, dated 2011).

Tests used:
Ramos cells = assay: Inhibition of B-cell Activation - B cell FLIPR assay in Ramos cells; type: cell-based; conditions: Homo sapiens, 0.5 h, intracellular calcium increase stimulated by 10 μg/mL anti-IgM, compounds incubated 30 min at RT
Text: Inhibition of B-cell Activation—B cell FLIPR assay in Ramos cells
The B cell FLIPR assay is a cell based functional method of determining the effect of potential inhibitors of the intracellular calcium increase from stimulation by an anti-IgM antibody. Ramos cells (human Burkitt's lymphoma cell line. ATCC-No. CRL-1596) were cultivated in Growth Media (described below). One day prior to assay, Ramos cells were resuspended in fresh growth media (same as above) and set at a concentration of 0.5×10^6/mL in tissue culture flasks. On day of assay, cells are counted and set at a concentration of 1×10^6/mL1 in growth media supplemented with 1 μM FLUO-3AM(TefLabs Cat-No. 0116, prepared in anhydrous DMSO and 10% Pluronic acid) in a tissue culture flask, and incubated at 37° C. (4% CO2) for one h. To remove extracellular dye, cells were collected by centrifugation (5 min, 1000 rpm), resuspended in FLIPR buffer (described below) at 1×10^6 cells/mL and then dispensed into 96-well poly-D-lysine coated black/clear plates (BD Cat-No. 356692) at 1×10^5 cells per well. Test compounds were added at various concentrations ranging from 100 μM to 0.03 μM (7 concentrations, details below), and allowed to incubate with cells for 30 min at RT. Ramos cell Ca^2+ signaling was stimulated by the addition of 10 μg/mL anti-IgM (Southern Biotech, Cat-No. 2020-01) and measured on a FLIPR (Molecular Devices, captures images of 96 well plates using a CCD camera with an argon laser at 480nm excitation).
Growth Medium: RPMI 1640 medium with L-glutamine (Invitrogen, Cat-No. 61870-010), 10% Fetal Bovine Serum (FBS, Summit Biotechnology Cat-No. FP-100-05); 1 mM Sodium Pyruvate (Invitrogen Cat. No. 11360-070).
FLIPR buffer: HBSS (Invitrogen, Cat-No. 141175-079), 2 mM CaCl2 (Sigma Cat-No. C-4901), HEPES (Invitrogen, Cat-No. 15630-080), 2.5mM Probenecid (Sigma, Cat-No. P-8761), 0.1% BSA (Sigma, Cat-No. A-7906), 11 mM Glucose (Sigma, Cat-No. G-7528)
Compound dilution details:
In order to achieve the highest final assay concentration of 100 μM, 24 μL of 10 mM compound stock solution (made in DMSO) is added directly to 576 μL of FLIPR buffer. The test compounds are diluted in FLIPR Buffer (using Biomek 2000 robotic pipettor) resulting in the following dilution scheme: vehicle, 1.00×10^−4 M, 1.00×10^−5, 3.16×10^−6, 1.00×10^−6, 3.16×10^−7, 1.00×10^−7, 3.16×10^−8.
Intracellular increases in calcium were reported using a max-min statistic (subtracting the resting baseline from the peak caused by addition of the stimulatory antibody using a Molecular Devices FLIPR control and statistic exporting software. The IC50 was determined using a non-linear curve fit (GraphPad Prism software). Representative results are in Table III.

[1] = target: T1, Btk enzyme (His-tagged, full-length) (Homo sapiens, UniProt Q06187); assay: Bruton's Tyrosine Kinase (Btk) Inhibition Assay (33P filtration capture); type: biochemical; conditions: Bruton's tyrosine kinase Assay (Example 34), 100 μM ATP
T1 construct: 5-10 nM Btk enzyme (His-tagged, full-length); His
T1 sequence (Q06187 whole entry): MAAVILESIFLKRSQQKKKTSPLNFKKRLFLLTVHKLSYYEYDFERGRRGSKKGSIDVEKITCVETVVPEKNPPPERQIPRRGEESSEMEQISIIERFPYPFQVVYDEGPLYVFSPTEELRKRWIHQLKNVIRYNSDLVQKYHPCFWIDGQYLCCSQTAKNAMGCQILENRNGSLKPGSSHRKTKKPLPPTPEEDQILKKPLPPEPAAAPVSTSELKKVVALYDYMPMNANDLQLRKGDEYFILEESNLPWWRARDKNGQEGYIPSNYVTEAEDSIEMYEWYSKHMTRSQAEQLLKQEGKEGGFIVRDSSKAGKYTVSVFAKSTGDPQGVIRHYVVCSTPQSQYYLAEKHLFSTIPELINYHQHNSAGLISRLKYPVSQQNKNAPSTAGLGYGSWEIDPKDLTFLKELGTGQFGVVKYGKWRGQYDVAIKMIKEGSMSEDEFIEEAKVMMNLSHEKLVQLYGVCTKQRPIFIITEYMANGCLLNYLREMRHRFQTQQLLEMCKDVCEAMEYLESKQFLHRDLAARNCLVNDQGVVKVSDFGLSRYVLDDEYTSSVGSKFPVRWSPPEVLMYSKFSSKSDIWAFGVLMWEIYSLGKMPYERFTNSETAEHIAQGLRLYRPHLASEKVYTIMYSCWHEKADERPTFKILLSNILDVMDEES
Text: Bruton's Tyrosine Kinase (Btk) Inhibition Assay
The assay is a capture of radioactive ^33P phosphorylated product through filtration. The interactions of Btk, biotinylated SH2 peptide substrate (Src homology), and ATP lead to phosphorylation of the peptide substrate. Biotinylated product is bound streptavidin sepharose beads. All bound, radiolabeled products are detected by scintillation counter.
Plates assayed are 96-well polypropylene (Greiner) and 96-well 1.2 μm hydrophilic PVDF filter plates (Millipore).
IC50 determinations are calculated from 10 data points per compound utilizing data produced from a standard 96-well plate assay template. One control compound and seven unknown inhibitors were tested on each plate and each plate was run twice. […] The control compound was staurosporine. Background was counted in the absence of peptide substrate. Total activity was determined in the presence of peptide substrate. The following protocol was used to determine Btk inhibition.
1) Sample preparation: The test compounds were diluted at half-log increments in assay buffer (imidazole, glycerol-2-phosphate, EGTA, MnCl2, MgCl2, BSA).
2) Bead preparation • a.) rinse beads by centrifuging at 500 g • b.) reconstitute the beads with PBS and EDTA to produce a 20% bead slurry
3) Pre-incubate reaction mix without substrate (assay buffer, DTT, ATP, ^33P ATP) and mix with substrate (assay buffer, DTT, ATP, ^33P ATP, peptide substrate) 30° C. for 15 min.
4) To start assay, pre-incubate 10 μL Btk in enzyme buffer (imidazole, glycerol-2-phosphate, BSA) and 10 μL of test compounds for 10 min at RT.
5) Add 30 μL reaction mixture without or with substrate to Btk and compounds.
6) Incubate 50 μL total assay mix for 30 min at 30° C.
7) Transfer 40 μL of assay to 150 μL bead slurry in filter plate to stop reaction.
8) Wash filter plate after 30 min, with following steps • a. 3×250 μL NaCl • b. 3×250 μL NaCl containing 1% phosphoric acid • c. 1×250 μL H2O
9) Dry plate for 1 h at 65° C. or overnight at RT
10) Add 50 μL microscint-20 and count ^33P cpm on scintillation counter.
Calculate percent activity from raw data in cpm percent activity=(sample−bkg)/(total activity−bkg)×100
Calculate IC50 from percent activity, using one-site dose response sigmoidal model y=A+((B−A)/(1+((x/C)^D))))

| Compound | IC50 (Ramos cells) | IC50 ([1]; Table I pyridazinones) | melting point | IC50 ([1]; Table II pyridinones) |
| --- | --- | --- | --- | --- |
| Cc1c(NC(=O)N2CCN(C(C)(C)C)CC2)cccc1-c1cc(Nc2ccc(C(=O)N3CCOCC3)cn2)c(=O)n(C)n1 [Compound I-6, 4-tert-Butyl-piperazine-1-carboxylic acid (2-methyl-3-{1-methyl-5-[5-(morpholine-4-carbonyl) -pyridin-2-ylamino]-6-oxo-1,6-dihydro-pyridazin-3-yl}-phenyl)-amide] |  | 15500 nM | 166 to 169 °C |  |
| Cc1c(NC(=O)c2ccc(C(C)(C)C)cc2)cccc1-c1cc(Nc2ccc(C(=O)N3CCN(C)CC3)cn2)c(=O)n(C)n1 [Compound I-2] |  | 14 nM | 158 to 160 °C |  |
| Cn1nc(-c2cccc(NC(=O)c3ccc(C(C)(C)O)cc3)c2)cc(Nc2ccc(C(=O)N3CCOCC3)cn2)c1=O [Compound I-16] |  | 120 nM | 172 to 173 °C |  |
| Cc1c(NC(=O)c2ccc(C(C)(C)O)cc2)cccc1-c1cc(Nc2ccc(C(=O)N3CCN(C)CC3)cn2)c(=O)n(C)n1 [Compound I-5] |  | 122 nM | 167.5 to 168.5 °C |  |
| CNC(=O)Nc1cc(-c2cccc(CC(=O)N3CC(OC(C)(C)C)C3)c2)cn(C)c1=O [II-29, 1-(5-{3-[2-(3-tert-Butoxy-azetidin-1-yl)-2-oxo-ethyl]-phenyl}-1-methyl-2-oxo-1,2-dihydro-pyridin-3-yl)-3-methyl-urea] |  |  | 125 to 126 °C | 1400 nM |
| Cc1c(NC(=O)c2ccc(C(C)(C)C)cc2)cccc1-c1cc(Nc2ccnc(N3CCC(CO)C3)n2)c(=O)n(C)n1 (stereo not drawn) [Compound I-20] |  | 125 nM | 210 to 211 °C |  |
| CCNC(=O)Nc1cc(-c2cccc(NC(=O)c3ccc(C(C)(C)C)cc3)c2C)nn(C)c1=O [Compound I-27] |  | 122 nM | 278 to 279 °C |  |
| COc1cc(C(C)(C)C)ccc1C(=O)Nc1cccc(-c2cc(Nc3ccc(C(=O)N4CCOCC4)cn3)c(=O)n(C)n2)c1C [Compound I-7] |  | 272 nM | 156.5 to 157 °C |  |
| Cc1c(NC(=O)c2ccc(C(C)(C)C)cc2)cccc1-c1cc(Nc2ccc(C(=O)N3CCOCC3)cn2)c(=O)n(C)n1 [Compound I-1, 4-tert-Butyl-N-(2-methyl-3-{1-methyl-5-[5-(morpholine-4-carbonyl)-pyridin-2-ylamino]-1,6-oxo-dihydro-pyridazin-3-yl}-phenyl)-benzamide] |  | < 10 nM | 148 to 150 °C |  |
| CC(C)OC1CN(C(=O)Cc2cccc(-c3cc(Nc4ccc(C(=O)N5CCOCC5)cn4)c(=O)n(C)n3)c2)C1 [Compound I-35] |  | 418 nM | 92 to 93 °C |  |
| Cn1nc(-c2cccc(NC(=O)c3ccc(C(C)(C)C)cc3)c2)cc(Nc2ccc(C(=O)N3CCOCC3)cn2)c1=O [Compound I-25] |  | 120 nM | 229 to 230 °C |  |
| Cn1nc(-c2cccc(CC(=O)N3CCCC3)c2)cc(Nc2ccc(C(=O)N3CCOCC3)cn2)c1=O [Compound I-33] |  | 16400 nM | 117 to 118 °C |  |
| Cc1c(NC(=O)N2CC(OC(C)(C)C)C2)cccc1-c1cc(Nc2ccc(C(=O)N3CCOCC3)cn2)c(=O)n(C)n1 [Compound I-10, 3-tert-Butoxy-azetidine-1-carboxylic acid(2-methyl-3-{1-methyl-5-[5-(morpholine-4-carbonyl) -pyridin-2-ylamino]-6-oxo-1,6-dihydro-pyridazin-3-yl}-phenyl)-amide] |  | 228 nM | 171 to 172 °C |  |
| Cc1c(NC(=O)c2ccc(C(C)(C)C)cc2)cccc1-c1cc(Nc2ccccn2)c(=O)n(C)n1 [Compound I-3] |  | 94 nM | 248.5 to 249.3 °C |  |

Other lines, results leading:

| IC50 (Ramos cells) | IC50 ([1]; Table I pyridazinones) | melting point | IC50 ([1]; Table II pyridinones) | Compound |
| --- | --- | --- | --- | --- |
| 67 nM |  |  |  | Cc1c(NC(=O)c2ccc(C(C)(C)C)cc2)cccc1-c1cc(Nc2ccc(C(=O)N3CCOCC3)cn2)c(=O)n(C)c1 [II-2, 4-tert-Butyl-N-(2-methyl-3-{1-methyl-5-[5-(morpholine-4-carbonyl)-pyridin-2-ylamino]-6-oxo-1,6-dihydro-pyridin-3-yl}-phenyl)-benzamide] |
|  |  | 164 to 165 °C | 129 nM | Cc1c(NC(=O)c2ccc(C(C)(C)C)cc2)cccc1-c1cc(NC(=O)NCCN(C)C)c(=O)n(C)c1 [II-16] |
|  |  | 185 to 186 °C | 308 nM | Cc1c(NC(=O)c2ccc(C(C)(C)C)cc2)cccc1-c1cc(NC(=O)NC(C)C)c(=O)n(C)c1 [II-6] |
|  |  | 113 to 114 °C | 54700 nM | CNC(=O)Nc1cc(-c2cccc(CC(=O)N3CC(CC(C)(C)O)C3)c2)cn(C)c1=O [II-47] |
|  |  | 286 to 287 °C | 131 nM | CNC(=O)Nc1cc(-c2cccc(NC(=O)c3cc4ccccc4s3)c2C)cn(C)c1=O [II-10] |
|  |  | 203 to 204 °C | < 10 nM | CCN(CC)Cc1ccc(Nc2cc(-c3cccc(NC(=O)c4ccc(C5(F)CC5)cc4)c3CO)cn(C)c2=O)nc1 [II-70, N-{3-[5-(5-Diethylaminomethyl-pyridin-2-ylamino)-1-methyl-6-oxo-1,6-dihydro-pyridin-3-yl]-2-hydroxymethyl-phenyl}-4-(1-fluoro-cyclopropyl)-benzamide] |
|  |  | 262 to 263 °C | 1950 nM | CNC(=O)Nc1cc(-c2cccc(NC(=O)N3Cc4ccc(F)cc4C3)c2C)cn(C)c1=O [II-14] |
|  |  | 254 to 255 °C | 40 nM | CNC(=O)Nc1cc(-c2cccc(NC(=O)c3cc4c(s3)CCCC4)c2C)cn(C)c1=O [II-11, 4,5,6,7-Tetrahydro-benzo[b]thiophene-2-carboxylic acid{2-methyl-3-[1-methyl-5-(3-methyl-ureido)-6-oxo-1,6-dihydro-pyridin-3-yl]-phenyl}-amide] |
|  |  | 219 to 220 °C | 7320 nM | Cc1c(NC(=O)c2ccc(C(C)(C)C)cc2)cccc1-c1cc(NC(=O)Nc2ccccc2)c(=O)n(C)c1 [II-8] |
| 15 nM |  |  |  | Cn1cc(-c2cccc(NC(=O)c3ccc(C(C)(C)C)cc3)c2CO)cc(Nc2ccc(C(=O)N3CCOCC3)cn2)c1=O [II-58] |
|  |  | 220 to 221 °C | 38 nM | Cc1c(NC(=O)c2ccc(C(C)(C)C)cc2)cccc1-c1cc(NC(=O)NCCO)c(=O)n(C)c1 [II-18] |
